For the test, the system named is Mycobacterium tuberculosis. The experiment in a line: The compound was tested for its ability to inhibit the growth of Mycobacterium tuberculosis strain H6/99; Resistant. It is filed as functional, organism-based.

From ChEMBL document CHEMBL1132871, “Antimycobacterial activity of ionic fullerene derivatives” (Bioorg Med Chem Lett, 2000) come the findings set out here.

Each structure is given as a SMILES string.

Turning to `CO[C@H]1/C=C/O[C@@]2(C)Oc3c(C)c(O)c4c(O)c(c(/C=N/N5CCN(C)CC5)c(O)c4c3C2=O)NC(=O)/C(C)=C\C=C\[C@H](C)[C@H](O)[C@@H](C)[C@@H](O)[C@@H](C)[C@H](OC(C)=O)[C@@H]1C`, the MIC entry is given as “Resistant”.
`NNC(=O)c1ccncc1`: the MIC entry is “Resistant”.
